According to US7470669B2, “Isolated polypeptide comprising a leptin fragment” (Serono Genetics Institute, S.A., priority 1999, dated 2008):

Tested on: db^Pas/db^Pas mice
Assay: Postprandial plasma TG response after high-fat test meal in db^Pas/db^Pas mice
Format: in vivo, mouse
Procedure: FIGS. 1A and 1B show the effect of leptin on postprandial plasma TG response in db/db and db^Pas/db^Pas mice. Overnight-fasted db/db (A), db^Pas/db^Pas (B) mice were gavage-fed a high-fat test meal and immediately injected intravenously (db/db) or intraperitoneally (db^Pas/db^Pas) with saline (open symbols) or 50 μg mouse recombinant leptin (closed symbols). At the indicated times, blood was collected from the tail (A) or orbital (B) vein, plasma was separated by centrifugation, and plasma TG concentrations were determined using an enzymatic kit. Each point represents the mean±SEM (db/db: saline, n=4, leptin, n=3; db^Pas/db^Pas: saline, n=6, leptin, n=7). The average plasma lipid response in 10 control C57BL6 mice is shown as a dotted line in both A and B. In a separate experiment, shown as an inset for each strain of mice, overnight fasted db/db (●) or db^Pas/db^Pas (▪) mice were gavage-fed the test meal and immediately injected intravenously with increasing concentrations of leptin. The plasma lipid response was then measured as in A and B. The area under the response curve (AUC) was then calculated using a triangulation method on Microsoft Excel between 0 and 4 hr (mg TG·h/mL). Values are presented as % of control value (test meal alone obtained in A or B). Each point represents the mean of at least 3 mice.
FIGS. 7A and 7B show a comparison of the effect of human and mouse leptin on LSR activity in rat hepatocytes and on postprandial increase in plasma TG in db^Pas/db^Pas mice. For FIG. 7A, primary cultures of rat hepatocytes were incubated 30 min at 37° C. without (open bar) or with 10 ng/mL recombinant human (solid bar) or mouse (hatched bar) leptin in Buffer A. Oleate (0.5 mM) and ^125I-LDL (20 μg/mL) were added and the cells were incubated 2 h at 37° C. The media were removed and were analyzed for TCA-soluble degradation products. The mean of duplicate determinations is shown. For FIG. 7B, db^Pas/db^Pas mice were given a test meal as previously described, followed immediately by injection i.p. of saline (open bar, n=4), human leptin (1 μg/animal; solid bar, n=3) or mouse leptin (0.25 μg/animal; hatched bar; n=3). The data represent the difference in TG concentrations measured at t=0 and the average of the concentrations at 3 and 4 hours. Results are shown as mean±SEM.
Mice that were fasted for 2-3 hours were gavage-fed 300 μL of a test meal consisting of 60% fat (37% saturated, 27% mono-, and 36% polyunsaturated fatty acids), 20% protein and 20% carbohydrate, and providing 56 kcal of energy/kg (1.5 g butter, 1.5 g sunflower oil, 2.5 g nonfat dry milk, 2.5 g sucrose and 3 ml water). […] TG concentrations were determined using a commercially available enzymatic kit with controls included in each assay (Precinorm L, Roche-Boehringer Mannheim; Lyotrol N, BioMérieux).

For “leptin: plasma protein of 16 kDa produced by adipocytes; recombinant human or mouse leptin, species depends on the experiment”, the “area under the TG curve” value (250 ng leptin per animal, AUC 0-4 h) was “significant reduction”, the “decrease of the area under the postprandial TG curve” value (500 ng leptin per animal (maximum effect)) was greater than 65% and the “amplitude of the triglyceride response” value (single bolus 50 μg mouse recombinant leptin i.p. at time of test meal) was “decreased the amplitude of the triglyceride response”.
